Values of other authors as cited in patent US6441051B1, “Insect eradicator and method” (priority 2001, dated 2002).

System: fire ants
Settings: d-limonene at about 5% concentration, after twenty-four hours

C=C(C)[C@H]1CC=C(C)CC1 [d-limonene]
kill rate: approximately 70%
